Test results: US4233299A, “4-Hydroxy-2H-1,2-benzothiazine-3-carboxamide-1,1-dioxides and salts thereof” (priority 1977, dated 1980)
“Also recorded” adds a separate entry of the source. Where two headings read alike, the source gives them in different places.

Tests used:
[1] = test system: adjuvant arthritis; assay: activity against adjuvant arthritis in the rat; type: in vivo, male Chbb:THOM-rats; conditions: for ED50: Rattus norvegicus, 504 h; for antiphlogistic activity: in words, compared with compound A
Procedure: 0.1 ml of a 1% suspension of M. butyricum in viscous paraffin oil was administered by subplantar injection to the right hind paw of male Chbb:THOM-rats having an average body weight of 210 gm at the beginning of the test. […]
Using a linear regression analysis, an ED50 with the confidence limits according to FIELLER [Quart. J. Pharm. Pharmacol. 17, 117 (1944)] was calculated as the dosage which reduces the swelling of the paws by 50% in comparison to the control animals.

[2] = ulcerogenic effect on the stomach of the rat; type: in vivo, male Chbb:THOM-rats; conditions: rat, in vivo; for selectivity ratio: po, Table IV, ED50 ulcer / ED50 adjuvant arthritis prim. reaction, read-out: Therapeutic Ratio I/II; for TD50: Table II, daily oral administration for 3 days, limits in parentheses, Litchfield and Wilcoxon, read-out: Ulcerogenic activity in the stomach ED50
Procedure: (§1) The test was carried out on male Chbb:THOM-rats with an average body weight of 130 gm at the beginning of the study. The animals were fed with a standard diet (Altromin-R) ad libitum. The test compounds were administered perorally as a trituration in 1% methyl cellulose (1 ml/100 gm animal) by means of an esophageal sound once a day on three successive days. Four hours after the last administration the animals were killed. The stomachs were dissected and the mucosa was washed with water for subsequent macroscopic evaluation. […] Therap. 96, 99 (1949)].

[3] = test system: stomach of the rat; assay: ulcerogenic effect on the stomach of the rat; type: in vivo, male Chbb:THOM-rats
Procedure: as §1

[4] = acute toxicity in the mouse; type: in vivo, male and female Chbb: NMRI (SPF)-mice; conditions: in vivo; for selectivity ratio: po, Table V, LD50 / ED50 adjuvant arthritis prim. reaction, read-out: Therapeutic Ratio I/II (converted); for LD50 at 336 h: Table III, oral administration, mouse, deaths within 14 days, limits in parentheses
Procedure: (§2) The acute toxicity was determined on male and female Chbb: NMRI (SPF)-mice (sex ratio of each dosage group 1:1) having an average body weight of 20 gm. The test compound was administered perorally as a trituration in 1% of methyl cellulose (0.2 ml/10 gm animal) by means of an esophageal sound.
(§3) The calculation of the LD50 -values was effected according to the method of LITCHFIELD and WILCOXON, based on the percentage of animals which died within 14 days after administration of each dose.

[5] = test system: pain caused by inflammation (yeast edema); assay: activity against the pain caused by inflammation (Randall and Selitto); type: in vivo, male Chbb:THOM-rats; conditions: for ED50: po, 1.5 h, read-out: Randall-Selitto ED50
Procedure: The activity against the pain caused by inflammation was tested according to Randall and Selitto [Arch. Int. Pharmacodyn. 111, 409 (1957] in male Chbb:THOM-rats, having a body weight of 100 to 130 gm. The test compounds were administered perorally 90 minutes after the induction of the yeast edema by means of an esophageal tube. After further 90 minutes the pain threshold was determined in the animals treated with the test compound and in the control animals treated only with the vehicle methyl cellulose, and by using a linear regression analysis an ED50 was calculated with the confidence limits according to FIELLER, the ED50 being the dose which increased the pain threshold by 50%.

[6] = test system: mouse; assay: acute toxicity in the mouse; type: in vivo, male and female Chbb: NMRI (SPF)-mice; conditions: compared with the other compounds; see Table V
Procedure: as §2, §3

[7] = Table I, daily oral administration, 21 days, dose per day, left hind paw swelling reduced by 50%, confidence limits according to FIELLER in parentheses, read-out: Activity against the secondary reaction ED50
[8] = Table I, daily oral administration, 21 days, dose per day, right hind paw swelling reduced by 50%, confidence limits according to FIELLER in parentheses, read-out: Activity against the primary reaction ED50

| SMILES | ED50 [1, 7] | ED50 [1, 8] | antiphlogistic activity [1] | selectivity ratio [2] | TD50 [2] | selectivity ratio [4] | LD50 at 336 h [4] | further results |
| --- | --- | --- | --- | --- | --- | --- | --- | --- |
| Cc1csc(NC(=O)C2=C(O)c3ccccc3S(=O)(=O)N2C)n1 [Compound B, 4-Hydroxy-2-methyl-N-(4-methyl-2-thiazolyl)-2H-1,2-benzothiazine-3-carboxamide-1,1-dioxide] | 0.21 mg/kg | 0.37 mg/kg | does not completely reach the antiphlogistic activity of compound A | 0.84 | 0.31 mg/kg | 1320 | 488 mg/kg | therapeutic ratio, in words ([3]; Table IV ratio, compared with compound C): still smaller than that of compound C; ulcerogenic activity, in words ([3]; stomach): strong ulcerogenic effect; also recorded: relatively more pronounced than its antiphlogistic activity; ulcerogenic effect on the stomach, relative to compound A ([3]; times stronger than that of compound A): more than 6 times |
| CN1C(C(=O)Nc2nccs2)=C(O)c2ccccc2S1(=O)=O [C, 4-Hydroxy-2-methyl-N-(2thiazolyl)-2H-1,2-benzothiazine-3-carboxamide-1,1-dioxide] |  |  | weaker antiphlogistic activity | 1.23 | 0.95 mg/kg | 12600 | 466 mg/kg | ED50 ([1]; po, read-out: Activity against the primary reaction ED50): 0.77 mg/kg; ED50 ([1]; po, read-out: Activity against the secondary reaction ED50): 0.6 mg/kg; ulcerogenic effect on the stomach, relative to compound A ([3]; in words, compared with compound A): two times stronger; ED50 ([5]; in Rattus norvegicus): 9.2 mg/kg |
| Cc1cnc(NC(=O)C2=C(O)c3ccccc3S(=O)(=O)N2C)s1 [Compound A, 4-Hydroxy-2-methyl-N-(5-methyl-2-thiazolyl)-2H-1,2-benzothiazine-3-carboxamide-1,1-dioxide] | 0.12 mg/kg | 0.28 mg/kg |  | 8.25 | 2.31 mg/kg | 1680 | 470 mg/kg | effect on the inflammatory primary reactions, relative to compound C ([1]; compared with compound C): three times greater; effect on the specific secondary reactions, relative to compound C ([1]; contralateral paw, compared with compound C): about 5 times; therapeutic ratio relative to compound C ([3]; Table IV ratio, times greater than that of compound C): about 7 times; stomach compatibility ([3]; in vivo): significantly better; therapeutic ratio relative to compound B ([3]; times greater than that of compound B): 10 times; difference between the antiphlogistically active doses and the toxic doses [6]: distinctly higher than in the other compounds; ED50 ([5]; Table VI, peroral, rat, dose which increased the pain threshold by 50%): 5.6 mg/kg; effectiveness against the pain caused by inflammation ([5]; rat, compared with compound C): increased effectiveness |
